Source: US7304174B2, “CaSR antagonist” (Japan Tobacco Inc., priority 2003, dated 2007)

How the values were obtained:
[1] = biological target: T1, human calcium receptor (Homo sapiens, UniProt P41180); assay: Evaluation of antagonistic action on calcium receptor using reporter gene (luciferase); type: cell-based; conditions: transformed rat adrenal derived cells, 5 mM calcium chloride, culture 4 hrs, luciferase activity; read-out: Reporter gene assay (IC50, concentration showing 50% inhibitory rate)
T1 construct: expressed in transfected cells; host or cells: cell strain derived from rat adrenal, co-transformed with luciferase cDNA
T1 sequence (P41180 20-1078): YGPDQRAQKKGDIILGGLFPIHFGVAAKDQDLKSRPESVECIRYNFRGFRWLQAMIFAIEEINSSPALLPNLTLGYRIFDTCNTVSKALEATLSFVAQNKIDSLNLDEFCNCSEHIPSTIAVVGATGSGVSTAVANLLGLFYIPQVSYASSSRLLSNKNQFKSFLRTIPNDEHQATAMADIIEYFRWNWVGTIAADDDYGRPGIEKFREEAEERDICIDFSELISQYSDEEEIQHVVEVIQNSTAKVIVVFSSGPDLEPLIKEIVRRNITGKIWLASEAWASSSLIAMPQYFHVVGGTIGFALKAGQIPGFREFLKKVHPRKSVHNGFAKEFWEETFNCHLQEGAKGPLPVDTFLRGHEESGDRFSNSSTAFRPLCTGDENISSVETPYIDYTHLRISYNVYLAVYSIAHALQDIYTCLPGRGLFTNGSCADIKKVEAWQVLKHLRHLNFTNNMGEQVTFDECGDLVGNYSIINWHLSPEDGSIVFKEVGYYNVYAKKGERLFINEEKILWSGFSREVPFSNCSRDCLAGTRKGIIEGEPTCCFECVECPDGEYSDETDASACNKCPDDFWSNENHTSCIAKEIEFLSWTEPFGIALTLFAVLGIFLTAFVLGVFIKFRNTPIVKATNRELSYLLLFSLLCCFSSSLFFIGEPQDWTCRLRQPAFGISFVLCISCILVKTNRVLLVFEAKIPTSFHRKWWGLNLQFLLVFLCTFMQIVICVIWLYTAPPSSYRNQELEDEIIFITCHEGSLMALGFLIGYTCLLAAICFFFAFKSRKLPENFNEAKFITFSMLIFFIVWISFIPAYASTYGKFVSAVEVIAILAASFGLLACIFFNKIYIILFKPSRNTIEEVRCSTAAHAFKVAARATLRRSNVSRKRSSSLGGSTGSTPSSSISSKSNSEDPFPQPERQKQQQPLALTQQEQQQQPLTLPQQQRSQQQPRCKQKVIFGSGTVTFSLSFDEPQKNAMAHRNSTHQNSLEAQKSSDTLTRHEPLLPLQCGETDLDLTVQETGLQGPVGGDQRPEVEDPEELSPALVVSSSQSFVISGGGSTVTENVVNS
Method in brief: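 Rat adrenal-derived cells transfected with luciferase and human calcium receptor cDNA, in F12 with 0.5% dialyzed horse serum and 0.25% dialyzed fetal bovine serum. Luciferase luminescence gave % inhibition vs control and blank; IC50 at 50% inhibition.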

[2] = tested on: PTH secretion; assay: PTH secretion action, Experimental Example 2 (serum PTH after oral administration); type: in vivo, male SD rats; conditions: test compound administration group, 1 mg/5 ml/kg oral, rats fasted 20 hr
Procedure: The test compound was orally administered to 5 to 9-week-old male SD rats (Charles River Japan, Inc.) fasted for 20 hr, using a solvent (0.5% methyl cellulose solution) at a dose of 1 mg/5 ml/kg. A solvent alone was orally administered to the control group at a dose of 5 ml/kg. The blood was drawn from the tail vein immediately before and, 15 min, 30 min, 60 min and 120 min after the administration of the test compound, and serum was obtained. The serum PTH concentration was measured using rat PTH ELISA kit (Amersham Biosciences).

IC50 [1] [nM]	Structure (SMILES)	Serum PTH concentration 15 min later [2] [pg/mL]	Serum PTH concentration 30 min later [2] [pg/mL]	Serum PTH concentration 60 min later [2] [pg/mL]	Serum PTH concentration 120 min later [2] [pg/mL]
10	Cc1ccc(CC(C)(C)NC[C@@H](O)CO[C@H](C)c2ccccc2-c2ccc(C(=O)O)c(C)c2)cc1Cl [Example 1-3, 2′-[1-[(2R)-3-[[1-(3-chloro-4-methylphenyl)-2-methylpropan-2-yl]amino]-2-hydroxypropoxy]ethyl]-3-methylbiphenyl-4-carboxylic acid]	23.8 ± 1.6	25.1 ± 3.9	9.5 ± 0.5	11.6 ± 0.9
13	Cc1cc(-c2ccccc2[C@@H](C)OC[C@H](O)CNC(C)(C)Cc2ccc(Cl)c(F)c2)ccc1C(=O)O [Example 1-2, 2′-[(1R)-[(2R)-3-[[1-(4-Chloro-3-fluorophenyl)-2-methylpropan-2-yl]amino]-2-hydroxypropoxy]ethyl]-3-methylbiphenyl-4-carboxylic acid]	28.5 ± 5.3	27.1 ± 2.3	10.5 ± 1.3	12.4 ± 1.6
20	Cc1cc(-c2ccccc2[C@@H](C)OC[C@H](O)CNC(C)(C)Cc2ccc(Cl)cc2F)ccc1C(=O)O [Example 1-6, 2′-[1-[(2R)-3-[[1-(4-chloro-2-fluorophenyl)-2-methylpropan-2-yl]amino]-2-hydroxypropoxy]ethyl]-3-methylbiphenyl-4-carboxylic acid]	28.9 ± 6.9	19.2 ± 3.1	10.0 ± 1.7	8.3 ± 0.6
27	COc1cc(C(=O)O)cc(OC)c1Oc1ccccc1C(C)OC[C@H](O)CNC(C)(C)Cc1ccc(C)c(F)c1 (stereo partly drawn) [Example 2-27, 4-[2-[1-[(2R)-3-[[1-(3-fluoro-4-methylphenyl)-2-methylpropan-2-yl]amino]-2-hydroxypropoxy]ethyl]phenoxy]-3,5-dimethoxybenzoic acid]	–	–	–	–
2	C[C@@H](OC[C@H](O)CNC(C)(C)Cc1ccc2ccccc2c1)c1ccccc1-c1ccc(C(=O)O)c(O)c1 [Example 1-49, 2′-[1-[(2R)-3-[[1-(naphthalen-2-yl)-2-methylpropan-2-yl]amino]-2-hydroxypropoxy]ethyl]-3-hydroxybiphenyl-4-carboxylic acid]	–	–	–	–
19	C[C@@H](OC[C@H](O)CNC(C)(C)Cc1ccc(Cl)c(Cl)c1)c1ccccc1-c1ccc(C(=O)O)cc1F [Example 1-67, 2′-[1-[(2R)-3-[[1-(3,4-dichlorophenyl)-2-methylpropan-2-yl]amino]-2-hydroxypropoxy]ethyl]-2-fluorobiphenyl-4-carboxylic acid]	–	–	–	–
14	Cc1cc(CC(C)(C)NC[C@@H](O)CO[C@H](C)c2ccccc2-c2ccc(C(=O)O)c(C)c2)ccc1Cl [Example 1-4, 2′-[1-[(2R)-3-[[1-(4-chloro-3-methylphenyl)-2-methylpropan-2-yl]amino]-2-hydroxypropoxy]ethyl]-3-methylbiphenyl-4-carboxylic acid]	–	–	–	–
16	CC(OC[C@H](O)CNC(C)(C)Cc1ccc2ccccc2c1)c1ccccc1C=Cc1ccc(C(=O)O)cc1 (stereo partly drawn) [Example 2-9, 4-[2-[2-[1-[(2R)-3-[[1-(naphthalen-2-yl)-2-methylpropan-2-yl]amino]-2-hydroxypropoxy]ethyl]phenyl]vinyl]benzoic acid]	–	–	–	–
17	C[C@@H](OC[C@H](O)CNC(C)(C)Cc1ccc(Cl)c(F)c1)c1ccccc1-c1ccc(C(=O)O)c(C(C)(C)C)c1 [Example 1-100, 2′-[1-[(2R)-3-[[1-(4-chloro-3-fluorophenyl)-2-methylpropan-2-yl]amino]-2-hydroxypropoxy]ethyl]-3-t-butylbiphenyl-4-carboxylic acid]	–	–	–	–
15	Cc1cc(-c2ccccc2[C@@H](C)OC[C@H](O)CNC(C)(C)Cc2ccc3ccccc3c2)ccc1C(=O)O [Example 1-13, 2′-[1-[(2R)-3-[[1-(naphthalen-2-yl)-2-methylpropan-2-yl]amino]-2-hydroxypropoxy]ethyl]-3-methylbiphenyl-4-carboxylic acid]	–	–	–	–
10	Cc1cc(-c2ccccc2[C@@H](C)OC[C@H](O)CNC(C)(C)Cc2ccc3ccccc3c2)ccc1C(=O)O [Example 1-55, 3-methyl-2′-[1-[(2R)-3-[[1-(naphthalen-2-yl)-2-methylpropan-2-yl]amino]-2-hydroxypropoxy]ethyl]biphenyl-4-carboxylic acid]	–	–	–	–
27	Cc1ccc(CC(C)(C)NC[C@@H](O)CO[C@H](C)c2ccccc2OCc2cccc(C(=O)O)c2)cc1F [Example 2-23, 3-[[2-[1-[(2R)-3-[[1-(3-fluoro-4-methylphenyl)-2-methylpropan-2-yl]amino]-2-hydroxypropoxy]ethyl]phenoxy]methyl]benzoic acid]	–	–	–	–
13	Cc1ccc(CC(C)(C)NC[C@@H](O)CO[C@H](C)c2ccccc2-c2ccc(C(=O)O)c(C)c2)cc1C [Example 1-21, 3-methyl-2′-[1-[(2R)-3-[[1-(3,4-dimethylphenyl)-2-methylpropan-2-yl]amino]-2-hydroxypropoxy]ethyl]biphenyl-4-carboxylic acid]	–	–	–	–
3	Cc1ccc(CC(C)(C)NC[C@@H](O)CO[C@H](C)c2ccccc2-c2ccc(C(=O)O)c(CC(C)C)c2)cc1F [Example 1-46, 2′-[1-[(2R)-3-[[1-(3-fluoro-4-methylphenyl)-2-methylpropan-2-yl]amino]-2-hydroxypropoxy]ethyl]-3-isobutylbiphenyl-4-carboxylic acid]	–	–	–	–
96	Cc1cc(-c2ccccc2[C@@H](C)OC[C@H](O)CNC(C)(C)Cc2cccc(Cl)c2)ccc1C(=O)O [Example 1-60, 2′-[1-[(2R)-3-[[1-(3-chlorophenyl)-2-methylpropan-2-yl]amino]-2-hydroxypropoxy]ethyl]-3-methylbiphenyl-4-carboxylic acid]	–	–	–	–
14	Cc1ccc(CC(C)(C)NC[C@@H](O)CO[C@H](C)c2ccccc2Oc2ccc(C(=O)O)c(C(F)(F)F)c2)cc1F [Example 2-32, 4-[2-[1-[(2R)-3-[[1-(3-fluoro-4-methylphenyl)-2-methylpropan-2-yl]amino]-2-hydroxypropoxy]ethyl]phenoxy]-2-trifluoromethylbenzoic acid]	–	–	–	–
7	CCc1cc(-c2ccccc2[C@@H](C)OC[C@H](O)CNC(C)(C)Cc2ccc3ccccc3c2)ccc1C(=O)O [Example 1-30, 3-ethyl-2′-[1-[(2R)-3-[[1-(naphthalen-2-yl)-2-methylpropan-2-yl]amino]-2-hydroxypropoxy]ethyl]biphenyl-4-carboxylic acid]	26.1 ± 2.3	24.2 ± 3.3	18.2 ± 1.3	13.8 ± 0.6
106	Cc1cc(-c2ccccc2[C@@H](C)OC[C@H](O)CNC(C)(C)Cc2ccc(Cl)c(C(F)(F)F)c2)ccc1C(=O)O [Example 1-97, 2′-[1-[(2R)-3-[[1-(4-chloro-3-trifluoromethylphenyl)-2-methylpropan-2-yl]amino]-2-hydroxypropoxy]ethyl]-3-methylbiphenyl-4-carboxylic acid]	–	–	–	–
3	Cc1ccc(CC(C)(C)NC[C@@H](O)CO[C@H](C)c2ccccc2Oc2ccc(C(=O)O)cc2[N+](=O)[O-])cc1F [Example 2-28, 4-[2-[1-[(2R)-3-[[1-(3-fluoro-4-methylphenyl)-2-methylpropan-2-yl]amino]-2-hydroxypropoxy]ethyl]phenoxy]-3-nitrobenzoic acid]	–	–	–	–
